The text below walks through data of patent US20040224943A1, “Method of lowering body temperature with (R) - 2,3-benzodiazepines” (priority 2003, published 2004).

One data set deals with central BZ receptors. The settings on record: cited from earlier work.
In data set [1] the test system is mice. The experiment in a line: Stress Induced Hyperthermia (SIH) assay. Type of data set: in vivo. The settings on record: for lowering the core body temperature: 64 mg/kg intraperitoneally 60 minutes before T1, at both T1 and T2. As to the method: In this assay, two successive temperature measurements are performed, the first, a basal measurement and the second, a measurement of a stress-enhanced temperature. The difference between the two measurements (delta T) is compared in animals treated with a test compound versus animals treated with vehicle alone to determine the test compound's activity in lowering body temperature. […] Besides the effect of drugs on the stress-enhanced temperature (T2), this test also directly measures intrinsic effects of drugs on the core body temperature (T1). Thus a test compound that reduces T2 and thus yields a lower delta T has utility in therapies that are directed to lowering the body temperature of an individual, such as perimenopause and menopause.
Mice, individually housed overnight, were subjected to two sequential rectal temperature measurements ten minutes apart. The first measurement is the basal temperature (T1), the second one the stress-enhanced temperature (T2). The difference (delta T) is the stress-induced hyperthermia. See, Van der Heyden et al., “Stress-induced hyperthermia in singly housed mice,” Physiology and Behavior, 463-470, (1997).
Test animals (group housed mice) were assigned to five groups of ten animals each. The test groups were dosed according to Table 2 below.
The test animals were isolated in an experimental room approximately one hour before lights off on the day before the test. On the day of testing, animals were taken quietly from the cage, held in a supine position, the rectal temperature was measured and the animal was placed back into the cage. The same procedure was repeated 10 minutes later. The first temperature (T1), the second temperature (T2) and the difference (delta T) were recorded. The test compounds were administered intraperitonealy 60 minutes before T1, in order to prevent the stress of being injected from affecting the temperature measurements.

Another data set has as its target peripheral BZ receptors (Homo sapiens, UniProt P30536). The following applies: cited from earlier work.
The next data set has as its system lymphocyte. The settings on record: in vitro, cited from earlier work.
Data set [2] relates to mice. The settings on record: cited from earlier work.
For another data set, the system named is rats. The following applies: cited from earlier work.
Data set [3] deals with mice. The following applies: reported in U.S. Pat. No. 4,322,346; cited from earlier work.

Sequence of peripheral BZ receptors (P30536 whole entry): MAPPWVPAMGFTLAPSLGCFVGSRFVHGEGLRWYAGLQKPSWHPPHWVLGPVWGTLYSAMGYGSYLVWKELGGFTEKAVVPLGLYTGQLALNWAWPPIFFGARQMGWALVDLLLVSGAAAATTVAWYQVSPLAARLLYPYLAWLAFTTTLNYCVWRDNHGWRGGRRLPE

With `CCC1C(C)=NN=C(c2ccc(OC)c(OC)c2)c2cc(OC)c(OC)cc21` (racemic) [tofisopam], in the data set on central BZ receptors, the “interaction with central BZ receptors” value is reported as “does not interact”. Besides, in the data set with mice [1], the “lowering the core body temperature” value is given as “demonstrates activity in lowering the core body temperature”. Moreover, the “binding to peripheral BZ receptors” value at peripheral BZ receptors was “binds only weakly”. For the same compound, in the data set with lymphocyte (mitogen-induced), the IL-2 production entry is “enhances”. In addition, the mitogen-induced lymphocyte proliferation result in the data set with lymphocyte was “enhances”.

`CC[C@H]1C(C)=NN=C(c2ccc(OC)c(OC)c2)c2cc(OC)c(OC)cc21` [(R)-tofisopam, (R)-1-(3,4-dimethoxyphenyl)-4-methyl-5-ethyl-7,8-dimethoxy-5H-2,3-benzodiazepine]: the “lowering the core body temperature” value with mice [1] is “demonstrated therapeutic activity”. In addition, the “sedation, abnormal gait, ptosis, muscle tone, lacrimation, reactivity to touch” value in the data set on mice [1] (64 mg/kg intraperitoneally, compared with (S)-enantiomer or racemate) is reported as “less sedation, abnormal gait, or ptosis, decreased muscle tone, decreased lacrimation, or decreased reactivity to touch”.

With `CC[C@@H]1C(C)=NN=C(c2ccc(OC)c(OC)c2)c2cc(OC)c(OC)cc21` [(S)-tofisopam, (S)-1-(3,4-dimethoxyphenyl)-4-methyl-5-ethyl-7,8-dimethoxy-5H-2,3-benzodiazepine], the “lowering the core body temperature” value in the data set on mice [1] was “more active than either the racemate or the (R)-enantiomer”.

In the case of `CCC1C(C)=NN=C(c2ccc(OC)c(OC)c2)c2cc(OC)c(O)cc21` (stereo not drawn) [Compound 1, 1-(3,4-dimethoxyphenyl)-4-methyl-5-ethyl-7-hydroxy-8-methoxy-5H-2,3-benzodiazepine], the inhibition of aggression with mice [2] is 0%. The inhibition of muricide in the data set with rats is 20%.

For the compound `CCC1C(C)=NN=C(c2ccc(O)c(OC)c2)c2cc(OC)c(OC)cc21` (stereo not drawn) [Compound 3, 1-(3-methoxy-4-hydroxyphenyl)-4-methyl-5-ethyl-7,8-dimethoxy-5H-2,3-benzodiazepine], the inhibition of aggression with mice [2] is reported as 0%. Further, the inhibition of muricide with rats is reported as 0%. The narcosis-potentiating activity result with mice [3] is “narcosis-potentiating activity”.

In the case of `CCC1C(C)=NN=C(c2ccc(O)c(OC)c2)c2cc(OC)c(O)cc21` (stereo not drawn) [Compound 5, 1-(3-methoxy-4-hydroxyphenyl)-4-methyl-5-ethyl-7-hydroxy-8-methoxy-5H-2,3-benzodiazepine], the inhibition of aggression in the data set with mice [2] is 28.6%. For the same compound, in the data set with rats, the inhibition of muricide is listed as 20%.
